In patent publication US20240299422A1, “Topical Cannabinoid Compositions and Methods for Treating Skin Diseases” (Avicanna Inc., priority 2021, published 2024):

Assay: Plasma profile of CBD after topical application in rats
Assay type: in vivo, Sprague Dawley Rats
Description: 12 Female Sprague Dawley Rats (150-200 g) were purchased from Charles River Laboratories (Wilmington, MA). Rats were allowed to acclimatise for one week prior to commencement of the study.
At day 0, rats were anaesthetised using 3% isoflurane via inhalation. The skin on the dorsal side of the rats was shaved and a circular area of approximately 18.09 cm^2 was marked onto the surface of the skin. Twice daily, cream was applied to the dorsal surface of the skin using a 1 ml syringe that was prefilled with the composition described in Example 1 at a dose of 15 mg/kg of cannabidiol (CBD). Following the application of the cream and in order to prevent the cream from being removed, dermal application jackets were applied to each of the rats. These were maintained on the animals for the duration of the study (i.e. 7 days). Every 24 hours, blood was collected by puncturing the saphenous vein with a 20 G needle. At each time point, approximately 200 μL of blood was collected into Microvette™ 200 ZGel collection tubes (Sarstedt). Blood samples were centrifuged at 1.5×104 RPM for 5 mins. Following this, plasma was isolated and stored at −80° C. until the end of the study when all samples were analysed simultaneously. […]
Plasma (20 μL) was added to a 1:1 (v/v) solution of acetonitrile:ethyl acetate at a ratio of 1:10 (plasma:organic solvent). […] The samples were reconstituted with LC-MS grade methanol prior to analysed by mass spectrometry.
LC analyses were performed on an Agilent 1260 LC infinity system consisting of a binary pump, a thermostated autosampler and a thermostated column compartment (Agilent, Waldbronn, Germany). Samples were analyzed on an Agilent Poroshell 120 C18 column (150×2.1 mm; 1.9 μm particle size) (Agilent, Waldbronn, Germany). […]
Tandem mass spectrometry was performed using a TSQ Endura™ Triple Quadrupole Mass Spectrometer (Thermo Fisher Scientific, Waltham, MA) operating in electrospray ionization (ESI). Xcalibur software (Thermo Fisher Scientific) was used for instrument control, data acquisition, qualitative and quantitative data analyses. […]

C=C(C)[C@@H]1CCC(C)=C[C@H]1c1c(O)cc(CCCCC)cc1O [CBD, cannabidiol]
Time of peak plasma concentration (topical composition of Example 1, 15 mg/kg CBD twice daily for 7 days, female rats): 96 h
Peak plasma concentration of CBD (topical composition of Example 1, 15 mg/kg CBD twice daily for 7 days, female rats, n=12): 21.08 ± 3.54 ng/mL
Plasma concentration of CBD by 168 h (topical composition of Example 1, 15 mg/kg twice daily, LOQ of LC-MS method 5 ng/ml): below the LOQ
